Experiments:
Assay type in all cases: functional
[1] = system: P388; test: Antitumor activity against mouse P388 cells xenografted in male organism at 200 mg/kg relative to control
[2] = system: P388; test: Antitumor activity against mouse P388 cells xenografted in male organism at 800 mg/kg relative to control
[3] = system: P388; test: Antitumor activity against mouse P388 cells xenografted in male organism at 400 mg/kg relative to control
[4] = system: P388; test: Antitumor activity against mouse P388 cells xenografted in male organism at 100 mg/kg relative to control
[5] = system: P388; test: Antitumor activity against mouse P388 cells xenografted in female organism at 50 mg/kg relative to control
[6] = system: P388; test: Antitumor activity against mouse P388 cells xenografted in female organism at 800 mg/kg relative to control
[7] = system: P388; test: Antitumor activity against mouse P388 cells xenografted in female organism at 100 mg/kg relative to control
[8] = system: P388; test: Antitumor activity against mouse P388 cells xenografted in female organism at 200 mg/kg relative to control
[9] = system: P388; test: Antitumor activity against mouse P388 cells xenografted in female organism at 400 mg/kg relative to control

`CO[C@@H](C)[C@](O)(C(=O)OCC1=CC[N+]2([O-])CC[C@H](O)[C@@H]12)C(C)(C)O` (stereo not given in full) showed a T/C [1] of 102, a T/C [2] of 111 and a T/C [3] of 129. For the same compound, the T/C [4] was 111.

Work on `CC(C)[C@@](O)(C(=O)OCC1=CC[N+]2([O-])CC[C@H](O)[C@@H]12)[C@H](C)O` (stereo not given in full) yielded a T/C [5] of 109, a T/C [6] of 145 and a T/C [7] of 113. The T/C [8] was 118 and the T/C [9] was 138.

`CC(C)[C@](O)(C(=O)OCC1=CC[N+]2([O-])CC[C@@H](O)[C@@H]12)[C@H](C)O` (stereo not given in full) [INDICINE N-OXIDE] showed a T/C [1] of 147, a T/C [2] of 187 and a T/C [3] of 165. It also gave a T/C [6] of 109, a T/C [8] of 130 and a T/C [9] of 136.
